# Patent publication US20260007681A1, “INDOLE DERIVATIVES AS ESTROGEN RECEPTOR DEGRADERS” (REGENTS OF THE UNIVERSITY OF MICHIGAN, priority 2022, published 2026)
# Target: ER (Homo sapiens (Human), UniProt P03372)
# Assay: Western blot analysis (Compounds B1-B278)
# Assay type: cell-based
# Settings: ER degradation by traditional Western blot; DC50 classes
# Protocol: Western Blot Analysis. The cells that are treated with the compounds are lysed in Radioimmunoprecipitation Assay Protein Lysis and Extraction Buffer (e.g., 25 mmol/L Tris.HCl, pH 7.6, 150 mmol/L NaCl, 1% Nonidet P-40, 1% sodium deoxycholate, and 0.1% sodium dodecyl sulfate) containing proteinase inhibitor cocktail. Equal amounts of total protein are electrophoresed through 10% SDS-polyacrylamide gels after determination of protein concentration by BCA assay. The separated protein bands are transferred onto PVDF membranes and blotted against different antibodies. The blots are scanned, and the band intensities are quantified (e.g., by using GelQuant.NET software provided by biochemlabsolutions.com). The relative mean intensity of target proteins is expressed after normalization to the intensity of glyceraldehyde-3-phosphate dehydrogenase bands.
# Western Blot Analysis. Western blot analysis was performed essentially as described previously. The cells treated with indicated compounds were lysed in Radioimmunoprecipitation Assay Protein Lysis and Extraction Buffer (25 mmol/L Tris.HCl, pH 7.6, 150 mmol/L NaCl, 1% Nonidet P-40, 1% sodium deoxycholate, and 0.1% sodium dodecyl sulfate) containing proteinase inhibitor cocktail (Roche Diagnostics, Mannheim, Germany). Equal amounts of total protein were electrophoresed through 10% SDS-polyacrylamide gels after determination of protein concentration by BCA assay (Fisher Scientific, Pittsburgh, PA). The separated protein bands were transferred onto PVDF membranes (GE Healthcare Life Sciences, Marlborough, MA) and blotted against different antibodies, as indicated. The blots were scanned, and the band intensities were quantified using GelQuant.NET software provided by biochemlabsolutions.com. The relative mean intensity of target proteins was expressed after normalization to the intensity of glyceraldehyde-3-phosphate dehydrogenase bands.
# ER, sequence (P03372 whole entry): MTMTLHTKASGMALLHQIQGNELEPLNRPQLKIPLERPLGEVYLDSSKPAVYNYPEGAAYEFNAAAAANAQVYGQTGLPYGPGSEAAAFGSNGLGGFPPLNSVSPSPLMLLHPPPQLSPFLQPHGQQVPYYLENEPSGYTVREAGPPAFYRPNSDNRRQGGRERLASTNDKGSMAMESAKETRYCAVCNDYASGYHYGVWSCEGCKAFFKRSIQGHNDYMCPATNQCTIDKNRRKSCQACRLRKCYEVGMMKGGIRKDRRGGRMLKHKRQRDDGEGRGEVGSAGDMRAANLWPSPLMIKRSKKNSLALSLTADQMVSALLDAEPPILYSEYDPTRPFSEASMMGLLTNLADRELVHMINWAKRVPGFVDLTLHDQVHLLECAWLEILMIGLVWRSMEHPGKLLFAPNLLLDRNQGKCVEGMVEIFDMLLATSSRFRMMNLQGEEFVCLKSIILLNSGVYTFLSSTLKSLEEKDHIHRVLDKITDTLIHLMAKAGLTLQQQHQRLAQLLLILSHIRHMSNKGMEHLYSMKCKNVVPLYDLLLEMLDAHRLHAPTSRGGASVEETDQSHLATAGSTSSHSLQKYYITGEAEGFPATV
row,Compound,Traditional Western Degradation Potency
1,"C[C@H]1Cc2c([nH]c3ccccc23)[C@H](c2c(F)cc(N3CC4(CCN(C(=O)CN5Cc6cc7c(cc6C5)C(=O)N(C5CCC(=O)NC5=O)C7)CC4)C3)cc2F)N1CC(F)F (stereo partly drawn) [Compound B28, 3-(6-(2-(2-(4-((1S,3S)-2-(2,2-difluoroethyl)-3-methyl-2,3,4,9-tetrahydro-1H-pyrido[3,4-b]indol-1-yl)-3,5-difluorophenyl)-2,7-diazaspiro[3.5]nonan-7-yl)-2-oxoethyl)-1-oxo-3,5,6,7-tetrahydropyrrolo[3,4-f]isoindol-2(1H)-yl)piperidine-2,6-dione]",A (“A”: <10 nM)
2,"C[C@@H]1Cc2c([nH]c3ccccc23)[C@@H](c2c(F)cc(N3CCCC(CN4CCC(N5Cc6cc7c(cc6C5)C(=O)N(C5CCC(=O)NC5=O)C7=O)CC4)C3)cc2F)N1CC(F)F (stereo partly drawn) [Compound B190, 6-(1-((1-(4-((1R,3R)-2-(2,2-difluoroethyl)-3-methyl-2,3,4,9-tetrahydro-1H-pyrido[3,4-b]indol-1-yl)-3,5-difluorophenyl)piperidin-3-yl)methyl)piperidin-4-yl)-2-(2,6-dioxopiperidin-3-yl)-6,7-dihydropyrrolo[3,4-f]isoindole-1,3(2H,5H)-dione]",B (“B”: 10-100 nM)
3,"C[C@@H]1Cc2c([nH]c3ccccc23)[C@@H](c2c(F)cc(N3CCC(CN4CCC(C(=O)N5Cc6cc7c(cc6C5)C(=O)N(C5CCC(=O)NC5=O)C7=O)CC4)C3)cc2F)N1CC(F)F (stereo partly drawn) [Compound B188, 6-(1-((1-(4-((1R,3R)-2-(2,2-difluoroethyl)-3-methyl-2,3,4,9-tetrahydro-1H-pyrido[3,4-b]indol-1-yl)-3,5-difluorophenyl)pyrrolidin-3-yl)methyl)piperidine-4-carbonyl)-2-(2,6-dioxopiperidin-3-yl)-6,7-dihydropyrrolo[3,4-f]isoindole-1,3(2H,5H)-dione]",A (“A”: <10 nM)
4,"C[C@@H]1Cc2c([nH]c3ccccc23)[C@@H](c2c(F)cc(N3CCC(CN4Cc5cc6c(cc5C4)C(=O)N(C4CCC(=O)NC4=O)C6)CC3)cc2F)N1CC(F)F (stereo partly drawn) [Compound B73, 3-(6-((1-(4-((1R,3R)-2-(2,2-difluoroethyl)-3-methyl-2,3,4,9-tetrahydro-1H-pyrido[3,4-b]indol-1-yl)-3,5-difluorophenyl)piperidin-4-yl)methyl)-1-oxo-3,5,6,7-tetrahydropyrrolo[3,4-f]isoindol-2(1H)-yl)piperidine-2,6-dione]",C (“C”: >100 nM)
5,"C[C@@H]1Cc2c([nH]c3ccccc23)[C@@H](c2c(F)cc(N3CC(CC(=O)N4CC(N5Cc6cc7c(cc6C5)C(=O)N(C5CCC(=O)NC5=O)C7)C4)C3)cc2F)N1CC(F)F (stereo partly drawn) [Compound B43, 3-(6-(1-(2-(1-(4-((1R,3R)-2-(2,2-difluoroethyl)-3-methyl-2,3,4,9-tetrahydro-1H-pyrido[3,4-b]indol-1-yl)-3,5-difluorophenyl)azetidin-3-yl)acetyl)azetidin-3-yl)-1-oxo-3,5,6,7-tetrahydropyrrolo[3,4-f]isoindol-2(1H)-yl)piperidine-2,6-dione]",B (“B”: 10-100 nM)
6,"C[C@@H]1Cc2c([nH]c3ccccc23)[C@@H](c2c(F)cc(N3CC[C@@H](CN4CCC(C(=O)N5Cc6cc7c(cc6C5)C(=O)N(C5CCC(=O)NC5=O)C7=O)CC4)C3)cc2F)N1CC(F)F (stereo partly drawn) [Compound B197, 6-(1-(((S)-1-(4-((1R,3R)-2-(2,2-difluoroethyl)-3-methyl-2,3,4,9-tetrahydro-1H-pyrido[3,4-b]indol-1-yl)-3,5-difluorophenyl)pyrrolidin-3-yl)methyl)piperidine-4-carbonyl)-2-(2,6-dioxopiperidin-3-yl)-6,7-dihydropyrrolo[3,4-f]isoindole-1,3(2H,5H)-dione]",A (“A”: <10 nM)
7,"C[C@@H]1Cc2c([nH]c3ccccc23)[C@@H](c2c(F)cc(N3CCC(N4CCN(CC(=O)N5Cc6cc7c(cc6C5)C(=O)N(C5CCC(=O)NC5=O)C7)CC4)CC3)cc2F)N1CC(F)F (stereo partly drawn) [Compound B36, 3-(6-(2-(4-(1-(4-((1R,3R)-2-(2,2-difluoroethyl)-3-methyl-2,3,4,9-tetrahydro-1H-pyrido[3,4-b]indol-1-yl)-3,5-difluorophenyl)piperidin-4-yl)piperazin-1-yl)acetyl)-1-oxo-3,5,6,7-tetrahydropyrrolo[3,4-f]isoindol-2(1H)-yl)piperidine-2,6-dione]",A (“A”: <10 nM)
8,"C[C@@H]1Cc2c([nH]c3ccccc23)[C@@H](c2c(F)cc(N3CCCC4(CN(C(=O)CN5Cc6cc7c(cc6C5)C(=O)N(C5CCC(=O)NC5=O)C7=O)C4)C3)cc2F)N1CC(F)F (stereo partly drawn) [Compound B24, 6-(2-(6-(4-((1R,3R)-2-(2,2-difluoroethyl)-3-methyl-2,3,4,9-tetrahydro-1H-pyrido[3,4-b]indol-1-yl)-3,5-difluorophenyl)-2,6-diazaspiro[3.5]nonan-2-yl)-2-oxoethyl)-2-(2,6-dioxopiperidin-3-yl)-6,7-dihydropyrrolo[3,4-f]isoindole-1,3(2H,5H)-dione]",B (“B”: 10-100 nM)
9,"C[C@@H]1Cc2c([nH]c3ccccc23)[C@@H](c2ccc(C3=CCC(C(=O)N4CCC(N5Cc6cc7c(cc6C5)C(=O)N(C5CCC(=O)NC5=O)C7=O)CC4)CC3)cc2F)N1CC1(F)CC1 (stereo partly drawn) [Compound B250, 2-(2,6-dioxopiperidin-3-yl)-6-(1-(3′-fluoro-4′-((1R,3R)-2-((1-fluorocyclopropyl)methyl)-3-methyl-2,3,4,9-tetrahydro-1H-pyrido[3,4-b]indol-1-yl)-2,3,4,5-tetrahydro-[1,1′-biphenyl]-4-carbonyl)piperidin-4-yl)-6,7-dihydropyrrolo[3,4-f]isoindole-1,3(2H,5H)-dione]",C (“C”: >100 nM)

# Second part, the compound after the results:
row,Traditional Western Degradation Potency,Compound
1,B (“B”: 10-100 nM),"C[C@@H]1Cc2c([nH]c3ccccc23)[C@@H](c2c(F)cc(C3CCC(CN4CCC(N5Cc6cc7c(cc6C5)C(=O)N(C5CCC(=O)NC5=O)C7)CC4)CC3)cc2F)N1CC(F)F (stereo partly drawn) [Compound B85, 3-(6-(1-((4-(4-((1R,3R)-2-(2,2-difluoroethyl)-3-methyl-2,3,4,9-tetrahydro-1H-pyrido[3,4-b]indol-1-yl)-3,5-difluorophenyl)cyclohexyl)methyl)piperidin-4-yl)-1-oxo-3,5,6,7-tetrahydropyrrolo[3,4-f]isoindol-2(1H)-yl)piperidine-2,6-dione]"
2,B (“B”: 10-100 nM),"C[C@@H]1Cc2c([nH]c3ccccc23)[C@@H](c2c(F)cc(N3CCCC4(CN(C(=O)CN5Cc6cc7c(cc6C5)C(=O)N(C5CCC(=O)NC5=O)C7)C4)C3)cc2F)N1CC(F)F (stereo partly drawn) [Compound B13, 3-(6-(2-(6-(4-((1R,3R)-2-(2,2-difluoroethyl)-3-methyl-2,3,4,9-tetrahydro-1H-pyrido[3,4-b]indol-1-yl)-3,5-difluorophenyl)-2,6-diazaspiro[3.5]nonan-2-yl)-2-oxoethyl)-1-oxo-3,5,6,7-tetrahydropyrrolo[3,4-f]isoindol-2(1H)-yl)piperidine-2,6-dione]"
3,C (“C”: >100 nM),"C[C@@H]1Cc2c([nH]c3ccccc23)[C@@H](c2c(F)cc(N3CCC(CN4CCC(C(=O)N5Cc6cc7c(cc6C5)C(=O)N(C5CCC(=O)NC5=O)C7=O)CC4)CC3)cc2F)N1CC(F)F (stereo partly drawn) [Compound B211, 6-(1-((1-(4-((1R,3R)-2-(2,2-difluoroethyl)-3-methyl-2,3,4,9-tetrahydro-1H-pyrido[3,4-b]indol-1-yl)-3,5-difluorophenyl)piperidin-4-yl)methyl)piperidine-4-carbonyl)-2-(2,6-dioxopiperidin-3-yl)-6,7-dihydropyrrolo[3,4-f]isoindole-1,3(2H,5H)-dione]"
4,A (“A”: <10 nM),"C[C@H]1Cc2c([nH]c3ccccc23)[C@H](c2c(F)cc(N3CC4(CCN(C(=O)CN5Cc6cc7c(cc6C5)C(=O)N(C5CCC(=O)NC5=O)C7=O)CC4)C3)cc2F)N1CC(F)F (stereo partly drawn) [Compound B27, 6-(2-(2-(4-((1S,3S)-2-(2,2-difluoroethyl)-3-methyl-2,3,4,9-tetrahydro-1H-pyrido[3,4-b]indol-1-yl)-3,5-difluorophenyl)-2,7-diazaspiro[3.5]nonan-7-yl)-2-oxoethyl)-2-(2,6-dioxopiperidin-3-yl)-6,7-dihydropyrrolo[3,4-f]isoindole-1,3(2H,5H)-dione]"
5,C (“C”: >100 nM),"C[C@@H]1Cc2c([nH]c3ccccc23)[C@@H](c2c(F)cc(N3CC4(CCN4CC(=O)N4Cc5cc6c(cc5C4)C(=O)N(C4CCC(=O)NC4=O)C6)C3)cc2F)N1CC(F)F (stereo partly drawn) [Compound B192, 3-(6-(2-(6-(4-((1R,3R)-2-(2,2-difluoroethyl)-3-methyl-2,3,4,9-tetrahydro-1H-pyrido[3,4-b]indol-1-yl)-3,5-difluorophenyl)-1,6-diazaspiro[3.3]heptan-1-yl)acetyl)-1-oxo-3,5,6,7-tetrahydropyrrolo[3,4-f]isoindol-2(1H)-yl)piperidine-2,6-dione]"
